# Reference: ChEMBL document CHEMBL1201862, “PubChem BioAssay data set” (2004)
#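 Compound exposure: 48 hours, 5 concentrations, 96-well plates. GI50: concentration for 50% inhibition of growth.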 Activity calls are given as the source filed them. Rule as the data show it: active = GI50 up to about 1.1 µM and inactive = higher.
# Experiments:
# Test in all cases: inhibition of tumour cell growth, NCI panel, 48 h
# CAKI-1 = system: CAKI-1
# HOP-62 = system: HOP-62
# NCI-H226 = system: NCI-H226
# OVCAR-8 = system: OVCAR-8
# RXF 393 = system: RXF 393
# OVCAR-5 = system: OVCAR-5
# SK-OV-3 = system: SK-OV-3
# A498 = system: A498
# M14 = system: M14
# OVCAR-4 = system: OVCAR-4
# SN12C = system: SN12C
# SNB-75 = system: SNB-75
# HCT-116 = system: HCT-116
# NCI-H522 = system: NCI-H522
# SW-620 = system: SW-620
# COLO 205 = system: COLO 205
# SK-MEL-5 = system: SK-MEL-5
# CCRF-CEM = system: CCRF-CEM
# SNB-19 = system: SNB-19
# SK-MEL-2 = system: SK-MEL-2
# LXFL 529 = system: LXFL 529
# UACC-257 = system: UACC-257
# MOLT-4 = system: MOLT-4
# IGROV-1 = system: IGROV-1
# TK-10 = system: TK-10
# K562 = system: K562
# HL-60 = system: HL-60
# LOX IMVI = system: LOX IMVI
# DLD-1 = system: DLD-1
# RXF 631 = system: RXF 631
# OVCAR-3 = system: OVCAR-3
# HCT-15 = system: HCT-15
# XF498 = system: XF498
# SK-MEL-28 = system: SK-MEL-28
# 786-0 = system: 786-0
# NCI-H460 = system: NCI-H460
# Malme-3M = system: Malme-3M
# HOP-18 = system: HOP-18
# SNB-78 = system: SNB-78
# KM12 = system: KM12
# A549 = system: A549
# HT-29 = system: HT-29
# DMS-114 = system: DMS-114
# UACC-62 = system: UACC-62
# SF-268 = system: SF-268
# RPMI-8226 = system: RPMI-8226
# M19-MEL = system: M19-MEL
# SF-539 = system: SF-539
# U-251 = system: U-251
# HOP-92 = system: HOP-92
# EKVX = system: EKVX
# DMS-273 = system: DMS-273
# NCI-H23 = system: NCI-H23
# KM-20L2 = system: KM-20L2
# UO-31 = system: UO-31
# ACHN = system: ACHN
# SF-295 = system: SF-295
# HCC 2998 = system: HCC 2998
smiles,measurement,setting,value
O=c1[nH]cc(COCC(O)CO)c(=O)[nH]1 (stereo unspecified),GI50,CAKI-1,> 100 µM (inactive)
same,GI50,HOP-62,> 100 µM (inactive)
same,GI50,NCI-H226,> 100 µM (inactive)
same,GI50,OVCAR-8,> 100 µM (inactive)
same,GI50,RXF 393,> 100 µM (inactive)
same,GI50,OVCAR-5,> 100 µM (inactive)
same,GI50,SK-OV-3,> 100 µM (inactive)
same,GI50,A498,> 100 µM (inactive)
same,GI50,M14,> 100 µM (inactive)
same,GI50,OVCAR-4,> 100 µM (inactive)
same,GI50,SN12C,> 100 µM (inactive)
same,GI50,SNB-75,> 100 µM (inactive)
same,GI50,HCT-116,> 100 µM (inactive)
same,GI50,NCI-H522,> 100 µM (inactive)
same,GI50,SW-620,> 100 µM (inactive)
same,GI50,COLO 205,> 100 µM (inactive)
same,GI50,SK-MEL-5,> 100 µM (inactive)
same,GI50,CCRF-CEM,> 100 µM (inactive)
same,GI50,SNB-19,> 100 µM (inactive)
same,GI50,SK-MEL-2,> 100 µM (inactive)
same,GI50,LXFL 529,> 100 µM (inactive)
same,GI50,UACC-257,> 100 µM (inactive)
same,GI50,MOLT-4,> 100 µM (inactive)
same,GI50,IGROV-1,> 100 µM (inactive)
same,GI50,TK-10,> 100 µM (inactive)
same,GI50,K562,> 100 µM (inactive)
same,GI50,HL-60,> 100 µM (inactive)
same,GI50,LOX IMVI,> 100 µM (inactive)
same,GI50,DLD-1,> 100 µM (inactive)
same,GI50,RXF 631,> 100 µM (inactive)
same,GI50,OVCAR-3,> 100 µM (inactive)
same,GI50,HCT-15,> 100 µM
same,GI50,XF498,> 100 µM (inactive)
same,GI50,SK-MEL-28,> 100 µM (inactive)
same,GI50,786-0,> 100 µM (inactive)
same,GI50,NCI-H460,> 100 µM (inactive)
same,GI50,Malme-3M,> 100 µM (inactive)
same,GI50,HOP-18,> 100 µM (inactive)
same,GI50,SNB-78,> 100 µM (inactive)
same,GI50,KM12,> 100 µM (inactive)
same,GI50,A549,> 100 µM (inactive)
same,GI50,HT-29,> 100 µM (inactive)
same,GI50,DMS-114,> 100 µM (inactive)
same,GI50,UACC-62,> 100 µM (inactive)
same,GI50,SF-268,> 100 µM (inactive)
same,GI50,RPMI-8226,> 100 µM (inactive)
same,GI50,M19-MEL,> 100 µM (inactive)
same,GI50,SF-539,> 100 µM (inactive)
same,GI50,U-251,> 100 µM (inactive)
same,GI50,HOP-92,> 100 µM (inactive)
same,GI50,EKVX,> 100 µM (inactive)
same,GI50,DMS-273,> 100 µM (inactive)
same,GI50,NCI-H23,> 100 µM (inactive)
same,GI50,KM-20L2,> 100 µM (inactive)
same,GI50,UO-31,> 100 µM (inactive)
same,GI50,ACHN,> 100 µM (inactive)
same,GI50,SF-295,> 100 µM (inactive)
Cc1nn(-c2ccccc2)c2nc(N3CCOCC3)nnc12,GI50,CAKI-1,39.6 µM (inactive)
same,GI50,HOP-62,> 100 µM (inactive)
same,GI50,OVCAR-8,92.5 µM (inactive)
same,GI50,RXF 393,> 100 µM (inactive)
same,GI50,OVCAR-5,> 100 µM (inactive)
same,GI50,SK-OV-3,> 100 µM (inactive)
same,GI50,A498,66.1 µM (inactive)
same,GI50,M14,97.1 µM (inactive)
same,GI50,OVCAR-4,34.7 µM (inactive)
same,GI50,SN12C,> 100 µM (inactive)
same,GI50,SNB-75,40.3 µM (inactive)
same,GI50,HCT-116,> 100 µM (inactive)
same,GI50,SW-620,> 100 µM (inactive)
same,GI50,HCC 2998,> 100 µM (inactive)
same,GI50,COLO 205,> 100 µM (inactive)
same,GI50,SK-MEL-5,49.2 µM (inactive)
same,GI50,CCRF-CEM,> 100 µM (inactive)
same,GI50,SNB-19,> 100 µM (inactive)
same,GI50,SK-MEL-2,51.3 µM (inactive)
same,GI50,LXFL 529,53.3 µM (inactive)
same,GI50,UACC-257,> 100 µM (inactive)
same,GI50,MOLT-4,40.6 µM (inactive)
same,GI50,IGROV-1,> 100 µM (inactive)
same,GI50,TK-10,> 100 µM (inactive)
same,GI50,K562,> 100 µM (inactive)
same,GI50,LOX IMVI,> 100 µM (inactive)
same,GI50,DLD-1,59.2 µM (inactive)
same,GI50,RXF 631,92.7 µM (inactive)
same,GI50,OVCAR-3,88.7 µM (inactive)
same,GI50,HCT-15,65 µM
same,GI50,XF498,51.8 µM (inactive)
same,GI50,SK-MEL-28,> 100 µM (inactive)
same,GI50,786-0,> 100 µM (inactive)
same,GI50,NCI-H460,> 100 µM (inactive)
same,GI50,Malme-3M,64 µM (inactive)
same,GI50,HOP-18,< 0.01 µM (active)
same,GI50,SNB-78,> 100 µM (inactive)
same,GI50,KM12,> 100 µM (inactive)
same,GI50,A549,94.4 µM (inactive)
same,GI50,HT-29,> 100 µM (inactive)
same,GI50,DMS-114,34.4 µM (inactive)
same,GI50,UACC-62,69.2 µM (inactive)
same,GI50,SF-268,> 100 µM (inactive)
same,GI50,RPMI-8226,46.6 µM (inactive)
same,GI50,M19-MEL,> 100 µM (inactive)
same,GI50,SF-539,24.4 µM (inactive)
same,GI50,U-251,52.8 µM (inactive)
same,GI50,EKVX,> 100 µM (inactive)
same,GI50,DMS-273,> 100 µM (inactive)
same,GI50,NCI-H23,79.6 µM (inactive)
same,GI50,KM-20L2,> 100 µM (inactive)
same,GI50,UO-31,28.6 µM (inactive)
same,GI50,ACHN,71.9 µM (inactive)
same,GI50,SF-295,> 100 µM (inactive)
